Measured values as given in US8106048B2, “Heterocyclic NF-κB inhibitors” (4SC AG, priority 2004, dated 2012).

tested on: A549-NF-κB-SEAP reporter cells; assay: Inhibition of NF-κB-induced inflammation: […] NINA Instant Assay, TNF-α stimulated SEAP reporter; type: cell-based; details: % inhibition classes
Text: For the determination of anti-inflammatory activity of the compounds the […]® NINA Instant Assay from Cell Culture Service GmBH was used. This assay is based on […] recombinant A549-NF-κB-SEAP reporter cells preceded in 96-well flat bottom plates. As the transfected reportergen for SEAP (secreted embryonic alkaline phosphatase) is under transcriptional control of a NF-κB-responsive element, the expression of this reporter is activated upon stimulation with TNF-α. SEAP secretion into the culture supernatant can be detected by the chemiluminescent substrate CSPD®. Test compounds that inhibit the NF-κB activation show reduced SEAP activity and reduced luminescent readout.
Following 18 h of reactivation at 37° C., 5% CO2 and 90% relative humidity, the cells were incubated with 0.01 up to 100 μM of test compound for 4.5 h before stimulation with 2 ng/ml TNF-α. After stimulation with TNF-α for 22 h endogenous phosphatases were inactivated and CSPD® substrate was supplied for 40 min. SEAP activity then was quantified by measuring luminescence as relative light units (RLU) using a Tecan Ultra reader. Each data point was recorded in quadruplicates and EC50 values were calculated via fitting function and the Microsoft Excel Solver.

SMILES | Biological activity (inhibition in the NF-κB inflammation assay)
O=C(c1csc(C2CCN(C(=O)c3cc4ccccc4s3)CC2)n1)N1CCN(c2cccc(C(F)(F)F)c2)CC1 [compound 213] | ++ (“++” means 80-90%)
Cn1nc(C(C)(C)C)cc1C(=O)N1CCC(c2nc(C(=O)N3CCN(c4cccc(C(F)(F)F)c4)CC3)cs2)CC1 [compound 216] | ++ (“++” means 80-90%)
COC(=O)C1Cc2ccc(O)cc2CN1C(=O)c1csc(C2CCN(C(=O)Cc3ccc(F)cc3)CC2)n1 (stereo not shown) [compound 179] | + (“+” stands for 50-80% inhibition)
Cc1cc(NC(=O)N2CCC(c3nc(C(=O)N4CCN(c5cccc(C(F)(F)F)c5)CC4)cs3)CC2)c(C(F)(F)F)o1 [compound 76] | ++ (“++” means 80-90%)
O=C(Cc1ccc(F)cc1)N1CCC(c2nc(C(=O)N3CCc4cc(O)c(O)cc4C3)cs2)CC1 [compound 160] | + (“+” stands for 50-80% inhibition)
O=C(c1ccc2nccnc2c1)N1CCC(c2nc(C(=O)N3CCN(c4cccc(C(F)(F)F)c4)CC3)cs2)CC1 [compound 211] | + (“+” stands for 50-80% inhibition)
COc1cc(C(=O)N2CCC(c3nc(C(=O)N4CCN(c5cccc(C(F)(F)F)c5)CC4)cs3)CC2)cc(OC)c1OC [compound 225] | + (“+” stands for 50-80% inhibition)
O=C(CCC1CCCC1)NCC1CCN(c2nc(C(=O)N3CCN(c4cccc(C(F)(F)F)c4)CC3)cs2)CC1 [compound 100] | + (“+” stands for 50-80% inhibition)
O=C(Cc1ccc(F)cc1)N1CCC(c2nc(C(=O)N3CCN(c4ccccc4)CC3)cs2)CC1 [compound 180] | + (“+” stands for 50-80% inhibition)
O=C(c1csc(N2CCN(c3ccccc3)CC2)n1)N1CCN(c2cccc(C(F)(F)F)c2)CC1 [compound 68] | + (“+” stands for 50-80% inhibition)
O=C(Nc1nc(C(=O)N2CCN(c3cccc(C(F)(F)F)c3)CC2)cs1)Nc1ccccc1OC(F)(F)F [compound 55] | +++ (“+++” stands for 90-100% inhibition)
O=C(c1ccc(C(F)(F)F)c(F)c1)N1CCC(c2nc(C(=O)N3CCN(c4cccc(C(F)(F)F)c4)CC3)cs2)CC1 [compound 215] | +++ (“+++” stands for 90-100% inhibition)
N#Cc1ccc(C(=O)N2CCC(c3nc(C(=O)N4CCN(c5cccc(C(F)(F)F)c5)CC4)cs3)CC2)cc1 [compound 70] | ++ (“++” means 80-90%)
COc1ccc(N2CCC(c3nc(C(=O)N4CCN(c5cccc(C(F)(F)F)c5)CC4)cs3)CC2)cc1OC [compound 159] | + (“+” stands for 50-80% inhibition)
O=C(Nc1ccccc1OC(F)(F)F)N1CCC(c2nc(C(=O)N3CCN(c4cccc(C(F)(F)F)c4)CC3)cs2)CC1 [compound 140] | + (“+” stands for 50-80% inhibition)
Cc1sc(C2CCN(C(=O)c3ccccc3OC(F)(F)F)CC2)nc1CC(=O)N1CCN(c2cccc(Cl)c2)CC1 [compound 128] | +++ (“+++” stands for 90-100% inhibition)
O=C(c1csc(C2CCN(S(=O)(=O)c3ccc(F)cc3Cl)CC2)n1)N1CCN(c2cccc(C(F)(F)F)c2)CC1 [compound 195] | + (“+” stands for 50-80% inhibition)
O=C(c1csc(C2CCN(S(=O)(=O)c3ccc(Cl)cc3)CC2)n1)N1CCN(c2cccc(C(F)(F)F)c2)CC1 [compound 206] | + (“+” stands for 50-80% inhibition)
O=C(O)c1ccc(C(=O)O)c(C(=O)N2CCC(c3nc(C(=O)N4CCN(c5cccc(C(F)(F)F)c5)CC4)cs3)CC2)c1 [compound 184] | + (“+” stands for 50-80% inhibition)
COc1cccc(C(=O)N2CCC(c3nc(C(=O)N4CCN(c5cccc(C(F)(F)F)c5)CC4)cs3)CC2)c1 [compound 209] | + (“+” stands for 50-80% inhibition)
COc1nc(OC)nc(N2CCN(C(=O)c3csc(C4CCN(Cc5ccc(Br)cc5)CC4)n3)CC2)n1 [compound 121] | + (“+” stands for 50-80% inhibition)
O=C(c1csc(C2CCN(Cc3ccccc3OC(F)(F)F)CC2)n1)N1CCN(c2cccc(C(F)(F)F)c2)CC1 [compound 109] | + (“+” stands for 50-80% inhibition)
COc1nc(OC)nc(N2CCN(C(=O)c3csc(C4CCN(C(=O)Cc5ccc(F)cc5)CC4)n3)CC2)n1 [compound 126] | + (“+” stands for 50-80% inhibition)

SMILES | Biological activity (inhibition in the NF-κB inflammation assay)
COc1ccc(Cl)cc1S(=O)(=O)N1CCC(c2nc(C(=O)N3CCN(c4cccc(C(F)(F)F)c4)CC3)cs2)CC1 [compound 202] | ++ (“++” means 80-90%)
O=C(O)c1cc(Cl)c(Cl)cc1C(=O)N1CCC(c2nc(C(=O)N3CCN(c4cccc(C(F)(F)F)c4)CC3)cs2)CC1 [compound 187] | + (“+” stands for 50-80% inhibition)
O=C(c1csc(C2CCN(S(=O)(=O)c3cc(C(F)(F)F)cc(C(F)(F)F)c3)CC2)n1)N1CCN(c2cccc(C(F)(F)F)c2)CC1 [compound 201] | ++ (“++” means 80-90%)
O=C(c1csc(C2CCN(C(=O)c3ccccc3OC(F)(F)F)CC2)n1)N(CCc1ccccc1)Cc1ccccc1 [compound 149] | + (“+” stands for 50-80% inhibition)
O=C(c1csc(C2CCN(C(=O)c3ccccc3OC(F)(F)F)CC2)n1)N1CCN(c2cccc(C(F)(F)F)c2)CC1 [compound 223] | +++ (“+++” stands for 90-100% inhibition)
N=C(NC(=O)c1csc(C2CCN(C(=O)C(c3ccccc3)c3ccccc3)CC2)n1)Nc1nc2ccccc2[nH]1 [compound 93] | + (“+” stands for 50-80% inhibition)
O=C(c1csc(C2CCN(Cc3ccc(F)cc3)CC2)n1)N1CCN(c2cccc(C(F)(F)F)c2)CC1 [compound 170] | + (“+” stands for 50-80% inhibition)
COc1cc(N2CCC(c3nc(C(=O)N4CCN(c5cccc(C(F)(F)F)c5)CC4)cs3)CC2)nc(OC)n1 [compound 164] | ++ (“++” means 80-90%)
N#Cc1ccc(N2CCC(c3nc(C(=O)N4CCN(c5cccc(C(F)(F)F)c5)CC4)cs3)CC2)cc1 [compound 112] | + (“+” stands for 50-80% inhibition)
O=C(c1csc(C2CCN(Cc3c(F)cccc3F)CC2)n1)N1CCN(c2cccc(C(F)(F)F)c2)CC1 [compound 168] | + (“+” stands for 50-80% inhibition)
O=C(Nc1nnc(Cc2ccccc2)[nH]1)c1csc(C2CCN(C(=O)c3ccccc3OC(F)(F)F)CC2)n1 [compound 84] | + (“+” stands for 50-80% inhibition)
Cc1noc(C)c1S(=O)(=O)N1CCC(c2nc(C(=O)N3CCN(c4cccc(C(F)(F)F)c4)CC3)cs2)CC1 [compound 192] | + (“+” stands for 50-80% inhibition)
O=C(O)c1cccc(O)c1C(=O)N1CCC(c2nc(C(=O)N3CCN(c4cccc(C(F)(F)F)c4)CC3)cs2)CC1 [compound 186] | + (“+” stands for 50-80% inhibition)
O=C(c1csc(C2CCN(S(=O)(=O)c3c(Cl)nc4sccn34)CC2)n1)N1CCN(c2cccc(C(F)(F)F)c2)CC1 [compound 197] | + (“+” stands for 50-80% inhibition)
O=C(Nc1cc(F)cc2c1OCCO2)N1CCC(c2nc(C(=O)N3CCN(c4cccc(C(F)(F)F)c4)CC3)cs2)CC1 [compound 74] | ++ (“++” means 80-90%)
COc1ccc(OC)c(N2CCC(c3nc(C(=O)N4CCN(c5cccc(C(F)(F)F)c5)CC4)cs3)CC2)c1 [compound 116] | + (“+” stands for 50-80% inhibition)
N=C(NC(=O)c1coc(NC(=O)c2ccccc2OC(F)(F)F)n1)Nc1nc2ccccc2[nH]1 [compound 28] | +++ (“+++” stands for 90-100% inhibition)
O=C(c1ccc(C(F)(F)F)c(F)c1)N1CCN(c2nc(C(=O)N3CCN(c4cccc(C(F)(F)F)c4)CC3)cs2)CC1 [compound 60] | +++ (“+++” stands for 90-100% inhibition)
O=C(c1csc(C2CCN(CCC(c3ccccc3)c3ccccc3)CC2)n1)N1CCN(c2cccc(C(F)(F)F)c2)CC1 [compound 35] | +++ (“+++” stands for 90-100% inhibition)
Cc1ccc(S(=O)(=O)N2CCC(c3nc(C(=O)N4CCN(c5cccc(C(F)(F)F)c5)CC4)cs3)CC2)cc1 [compound 204] | + (“+” stands for 50-80% inhibition)
O=C(c1csc(C2CCN(c3ccccc3)CC2)n1)N1CCN(c2cccc(C(F)(F)F)c2)CC1 [compound 119] | + (“+” stands for 50-80% inhibition)
Cc1sc(C2CCN(C(=O)c3ccccc3OC(F)(F)F)CC2)nc1CC(=O)N1CCN(c2cccc(C(F)(F)F)c2)CC1 [compound 103] | ++ (“++” means 80-90%)

same assay, conditions: inhibition classes

SMILES | Biological activity (inhibition in the NF-κB inflammation assay)
O=C(Cc1ccc(F)cc1)N1CCC(c2nc(C(=O)N3CCN(c4cccc(Cl)c4)CC3)cs2)CC1 [compound 238] | + (“+” stands for 50-80% inhibition)
